Measurements from PubChem BioAssay (NCI).
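Following 48 hours of exposure in 96-well plates, responses at five concentrations were used to interpolate endpoints linearly. At the GI50, growth is halved. The concentration for full growth arrest is given as TGI.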

What was measured:
Test in all cases: NCI tumour cell line growth inhibition, 48 h
[1] = test system: SR leukemia
[2] = test system: K-562 leukemia
[3] = test system: SK-OV-3 ovarian
[4] = test system: UACC-257 melanoma
[5] = test system: HS 578T breast
[6] = test system: NCI/ADR-RES ovarian
[7] = test system: OVCAR-3 ovarian
[8] = test system: KM12 colon
[9] = test system: MDA-MB-435
[10] = test system: RPMI-8226 leukemia

Structure (SMILES)	GI50 [1]	TGI [1]	GI50 [2]	TGI [2]	GI50 [3]	TGI [3]	GI50 [4]	TGI [4]	GI50 [5]	TGI [5]	GI50 [6]	TGI [6]	GI50 [7]	TGI [7]	GI50 [8]	TGI [8]	GI50 [9]	TGI [9]	GI50 [10]	TGI [10]
COc1cc(CCNc2nc3cc(N)cc(N)c3nc2-c2ccccc2)cc(OC)c1	0.354 µM	2.22 µM	1.73 µM	4.25 µM	3.56 µM	13 µM	1.76 µM	3.61 µM	2.43 µM	5.85 µM	2.61 µM	6.3 µM	1.08 µM	2.35 µM	1.69 µM	3.54 µM	1.77 µM	3.5 µM		
N=C(N)c1ccc(-c2ccc(-c3ccc(Cl)c(Cl)c3)o2)nc1	0.559 µM	> 100 µM			1.53 µM	3.23 µM			1.89 µM	4.36 µM							1.78 µM	3.25 µM	2.33 µM	5.19 µM
O=C(Nc1ccc(Cl)cc1F)c1cc(Cl)ccc1O	2.2 µM	> 49.3 µM	0.361 µM	> 59.2 µM	0.576 µM	8.6 µM	0.482 µM	6.89 µM	0.341 µM	3.65 µM	0.364 µM	2.38 µM	0.412 µM	> 20.5 µM	1.51 µM	4.28 µM	0.499 µM	5.26 µM	0.302 µM	1.75 µM
CC(=O)OC1CC(C)c2c(Cl)ncnc21 (stereo not given)	78.2 µM	> 100 µM	> 100 µM	> 100 µM	> 100 µM	> 100 µM			> 100 µM	> 100 µM	> 100 µM	> 100 µM	> 100 µM	> 100 µM	> 100 µM	> 100 µM	> 100 µM	> 100 µM	> 100 µM	> 100 µM
COc1ccc2cc(C(=O)/C=C/c3ccco3)ccc2c1	16.2 µM	68.2 µM	38 µM	> 100 µM	53.1 µM	> 100 µM	26.1 µM	59.6 µM			23.8 µM	63.8 µM	44 µM	> 100 µM	34.5 µM	> 100 µM	34.2 µM	> 100 µM	32 µM	99.3 µM
NCC(=O)NC(CO)C(=O)O (stereo not given)				> 100 µM		> 100 µM		> 100 µM		> 100 µM		> 100 µM		> 100 µM		> 100 µM		> 100 µM		> 100 µM
Cc1cc2c(=O)c3ccccc3oc2c(C#N)c1C		> 100 µM		> 100 µM		> 100 µM		> 100 µM		> 100 µM		> 100 µM				> 100 µM				> 100 µM
Cc1ccc(C(CC(=O)c2ccccc2)C(C(=O)c2ccccc2)C(c2ccc(C)cc2)C2C(=O)NC(=S)NC2=O)cc1 (stereo not given)			26.7 µM	> 50 µM	> 50 µM	> 50 µM	13.4 µM	> 50 µM	21.7 µM	> 50 µM	8.05 µM	> 50 µM	19 µM	> 50 µM	15 µM	> 50 µM	14.6 µM	> 50 µM	44.2 µM	> 50 µM
Nc1nc(Cl)nc2c1ncn2C1CCC(COP(=O)(O)OP(=O)(O)OP(=O)(O)O)O1 (stereo not given)		> 100 µM				> 100 µM		> 100 µM		> 100 µM		55.8 µM		> 100 µM		> 100 µM		58.1 µM		
O=C1C(Cl)=C(Nc2cccc(O)c2)C(=O)N1c1ccc(Cl)cc1Cl	2.76 µM	26.9 µM	22 µM	58.1 µM	40.4 µM	> 100 µM					32.2 µM	> 100 µM			38.8 µM	> 100 µM	30.7 µM	> 100 µM	7.55 µM	30.7 µM
Cc1cc(O)c(O)c(Oc2cc(C)cc(O)c2O)c1		43.5 µM		> 100 µM		> 100 µM		> 100 µM		> 100 µM				> 100 µM		> 100 µM		> 100 µM		> 100 µM
CCCCC/C=C\C/C=C/CCCCCCCCNC(=O)Nc1ccc([N+](=O)[O-])cc1	10.8 µM	37.6 µM			40.7 µM	> 100 µM	40.7 µM	> 100 µM			7.8 µM	> 100 µM	6.74 µM	> 100 µM	6.96 µM	> 100 µM	8.21 µM	> 100 µM	4.54 µM	39.5 µM
Cc1[nH]c2ccccc2c1C1=CC(=O)C=CC1=O					14.5 µM	33.5 µM	14.3 µM	28.6 µM	8.86 µM	53.3 µM	10.9 µM	28.4 µM	2.16 µM	4.6 µM	12.2 µM	25.5 µM	5.04 µM	23.5 µM	11 µM	38.2 µM
CN1CCN(CCCOc2ccc3nc(Nc4ccc(C(F)(F)F)c(Cl)c4)ccc3c2)CC1	1.17 µM	4.01 µM	0.595 µM	2.07 µM	1.81 µM	3.49 µM			1.82 µM	6.1 µM	1.88 µM	5.22 µM	1.64 µM	3.46 µM	1.5 µM	3.05 µM	1.63 µM	3.16 µM	1.75 µM	4.12 µM
COC(=O)c1cc(NC(=O)CN(CCN(CC(=O)O)CC(=O)Nc2ccc(O)c(C(=O)OC)c2)CC(=O)O)ccc1O	6.06 µM	48.7 µM	96.4 µM	> 100 µM	45.5 µM	> 100 µM			> 100 µM	> 100 µM	> 100 µM	> 100 µM	> 100 µM	> 100 µM	> 100 µM	> 100 µM	> 100 µM	> 100 µM	> 100 µM	> 100 µM
Cc1nn(-c2ccccc2)c(C)c1/C=N/N1CCN(Cc2ccccc2)CC1	13.8 µM	35.1 µM	31.2 µM	> 100 µM			63 µM	> 100 µM	> 100 µM	> 100 µM	50.3 µM	> 100 µM			31.3 µM	> 100 µM	> 100 µM	> 100 µM	19.9 µM	48.9 µM

Structure (SMILES)	GI50 [1]	TGI [1]	GI50 [2]	TGI [2]	GI50 [3]	TGI [3]	GI50 [4]	TGI [4]	GI50 [5]	TGI [5]	GI50 [6]	TGI [6]	GI50 [7]	TGI [7]	GI50 [8]	TGI [8]	GI50 [9]	TGI [9]	GI50 [10]	TGI [10]
C=CCCC(O)c1ccc(CCCCCCCCCCC)o1 (stereo not given)			38.6 µM	> 100 µM	16.9 µM	33.8 µM	18.6 µM	33.9 µM	12.6 µM	30.2 µM	18.9 µM	35.5 µM	16.1 µM	35.9 µM	20.6 µM	51 µM	16.7 µM	35.3 µM	14 µM	38.6 µM
CNc1ccc(C(=O)CC(O)CCC(C)C2OC(=O)CC(O)CC(=O)CC(O)CC(O)CC(O)CC(O)CC3(O)CC(O)C(C(=O)NCCc4ccccn4)C(CC(OC4OC(C)C(O)C(N)C4O)/C=C/C=C/C=C/C=C\C=C/C=C/C=C/C2C)O3)cc1 (stereo not given)			2.43 µM	> 20.5 µM	2.32 µM	> 50 µM			0.489 µM	2.61 µM			0.643 µM	2.16 µM	3.6 µM	> 18.9 µM	0.128 µM	0.406 µM	0.823 µM	> 50 µM
O=C(OC(CNc1c(C(=O)c2ccccc2)c(=O)n(Cc2ccccc2)c(=O)n1Cc1ccccc1)CN1CCCCC1)c1ccccc1 (stereo not given)			14.9 µM	31.3 µM	37.6 µM	> 100 µM	15.1 µM	32.5 µM	42 µM	> 100 µM	17.6 µM	34.5 µM	18 µM	35.2 µM	19.9 µM	40.2 µM	18.5 µM	37.7 µM	13.8 µM	31.8 µM
Cc1ccc(C)c(N2C(=O)C(=O)c3c(C)ccc(C)c32)c1		37.7 µM		48.5 µM		> 100 µM		48.2 µM		63.4 µM		62.9 µM		34.1 µM		66.1 µM		46.4 µM		
O=C(Nc1cccc(-n2cc(-c3ccncc3)c(-c3ccc(O)c(Cl)c3)n2)c1)c1ccc(N2CCOCC2)c(C(F)(F)F)c1	1.05 µM	> 50 µM	1.45 µM	> 50 µM	> 50 µM	> 50 µM	> 50 µM	> 50 µM	0.548 µM	> 50 µM	4.24 µM	> 50 µM			1.12 µM	> 50 µM	5 µM	> 50 µM	1.04 µM	4.24 µM
COc1cc([N+](=O)[O-])c(OC)cc1-c1nc2n(c1/C(N)=N/C(=N)N)CCS2			> 100 µM	> 100 µM	> 100 µM	> 100 µM	15.9 µM	57 µM	32.5 µM	> 100 µM	> 100 µM	> 100 µM	33.5 µM	> 100 µM	> 100 µM	> 100 µM	> 100 µM	> 100 µM	> 100 µM	> 100 µM
COc1cc(C2C(C(=O)OCc3ccccc3)=C(C)NC(C)=C2C(=O)OCc2ccccc2)cc(OC)c1OC	2.22 µM	> 100 µM			4.78 µM	> 100 µM	3.82 µM	> 100 µM	5.61 µM	> 100 µM	3.06 µM	> 100 µM	4.99 µM	> 100 µM					2.09 µM	> 100 µM
N#C/C(=C\c1ccc([N+](=O)[O-])s1)c1nc2cc(Br)ccc2s1	0.0856 µM	1.77 µM	0.0561 µM	> 40.6 µM	1.64 µM	> 100 µM			0.804 µM	9.28 µM	0.276 µM	0.827 µM	0.248 µM	0.733 µM	0.399 µM	2.47 µM			0.246 µM	0.856 µM
CC1=C2[C@@H](c3ccccc3)C3C=CC2(c2ccccc23)N(C(=O)Nc2cccc3ccccc23)C1=O (stereo not given in full)		> 100 µM		> 100 µM		> 100 µM		> 100 µM						> 100 µM		> 100 µM				> 100 µM
CCc1cccc(CC)c1NC(=O)c1ccn2c1CCc1cnc(Nc3ccc(N4CCN(C)CC4)cc3OC)nc1-2					11.3 µM	23.4 µM	2.05 µM	4.8 µM	2.24 µM	11 µM	1.33 µM	> 100 µM	1.55 µM	4.22 µM	2.63 µM	14.8 µM	2.51 µM	11.7 µM	1.92 µM	6.58 µM
Cc1cn2c(/C=N/N=C(N)N)c(-c3cc(Cl)sc3Cl)nc2s1					1.15 µM	2.78 µM					5.57 µM	13.3 µM			0.736 µM	1.59 µM			0.792 µM	1.73 µM
Cc1csc(-c2ccc3c(c2)COC3(CCCN(C)C)c2ccc(F)cc2)c1 (stereo not given)			2.29 µM	5.18 µM	1.87 µM	3.69 µM	1.81 µM	3.76 µM	1.93 µM	4.44 µM	1.81 µM	3.44 µM	1.81 µM	3.37 µM	1.95 µM	3.75 µM	1.69 µM	3.08 µM	2.2 µM	4.76 µM
CN/N=C(/CC(=O)c1sc(-n2nc(-c3ccccc3)cc2-c2ccccc2)nc1C)C(=O)Nc1ccc(Cl)c(Cl)c1		> 100 µM		> 100 µM		> 100 µM		> 100 µM						> 100 µM		> 100 µM				> 100 µM
CC(C)N(C(=O)C12C3C4C5C3C1(C#N)C5C42)C(C)C (stereo not given)		> 100 µM		> 100 µM		> 100 µM		> 100 µM						> 100 µM		> 100 µM				> 100 µM
CS(=O)(=O)c1ccc(-c2[nH]c3ccc(F)cc3c2/C=N/NC(N)=S)cc1	0.329 µM	32.8 µM	0.532 µM	41.2 µM	1.86 µM	> 100 µM	> 100 µM	> 100 µM	0.293 µM	7.74 µM	1.17 µM	> 100 µM	0.446 µM	12.1 µM	0.73 µM	28.8 µM			0.475 µM	6.64 µM
